This passage reports GI50 and TGI results from PubChem BioAssay (NCI).

The structures appear in SMILES notation.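 The compound was tested at five concentrations on cells cultured in 96-well plates, with a 48-hour exposure period. At the GI50, growth is halved. TGI: total growth inhibition.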 Bounds are passed on as bounds.

Holding throughout (assay): NCI tumour cell line growth inhibition, 48 h
Experiment [1] concerns K-562 leukemia.
The test system of experiment [2] is UACC-257 melanoma.
Experiment [3] has as its system SNB-75 CNS.
Experiment [4] has as its system OVCAR-4 ovarian.
The subject of experiment [5] is SW-620 colon.
In experiment [6] the test system is ACHN renal.
The subject of experiment [7] is OVCAR-8 ovarian.
Experiment [8] has as its system HCT-15 colon.
For experiment [9], the system named is SN12C renal.
Experiment [10] deals with A549 NSCLC.

For the molecule `CN1CCN(c2ccc(NC(=O)c3nc4ccc5[nH]ncc5c4c4c3CCCC4)cc2C(F)(F)F)CC1`, the GI50 in experiment [1] was 0.968 µM; in [2], 0.902 µM; in [3], 5.5 µM; in experiment [4] it was 1.45 µM; in [5], 0.947 µM; in experiment [6], 0.857 µM. The GI50 is 0.921 µM in experiment [7], 0.845 µM in experiment [8], 0.895 µM in experiment [9] and 1.12 µM in experiment [10]. The TGI in experiment [1] worked out at 2.11 µM; in experiment [2] it was 1.88 µM; in experiment [3], 12.1 µM; in [4], 6.81 µM; in experiment [5] it was 2.2 µM; in [6], 1.55 µM. The TGI in experiment [7] worked out at 1.91 µM; in [8], 1.78 µM; in experiment [9], 1.65 µM; in experiment [10], 3.05 µM.

Turning to `CC1(C)CC[C@H](Nc2ncc(C(F)(F)F)c(-c3c[nH]c4c(P(C)(C)=O)c(C#N)ccc34)n2)CN1`, the GI50 was 0.0219 µM in [1]; below 0.01 µM in experiment [2]; 0.774 µM in experiment [3]; 0.365 µM in experiment [4]; 0.0225 µM in experiment [5]; 0.0721 µM in experiment [6]. In addition, the GI50 is 0.469 µM in experiment [7], 0.21 µM in experiment [8], 0.141 µM in [9] and 0.184 µM in experiment [10]. The TGI in experiment [1] is above 45.9 µM; in experiment [2] it was 6.83 µM; in experiment [3], 10.6 µM; in experiment [4], 6.89 µM; in experiment [5], 13.2 µM; in [6] it was 9.27 µM. Further, the TGI was above 50.2 µM in experiment [7], 15.1 µM in experiment [8], 32.2 µM in experiment [9] and 35.4 µM in experiment [10].

As for `CC(C)=CCC/C(C)=C/CC/C(C)=C/Cc1c(O)c2ccccc2oc1=O`, the TGI in experiment [1], in experiment [2], in [3], in experiment [4], in experiment [5] and in [6] was above 100 µM in each case. Besides, the TGI in [7], in experiment [8], in experiment [9] and in experiment [10] was above 100 µM throughout.

`C=CCN(/C=C1/C(=O)O[C@H](COC)[C@@]2(C)C1=C(O)C(=O)C1=C2[C@H](OC(C)=O)C[C@]2(C)C(=O)CC[C@@H]12)CC=C`: the GI50 in experiment [1] is above 8.1 µM; in experiment [2] it was 0.72 µM; in [3], 0.0364 µM; in [4], 2.72 µM; in [5] it was 2.17 µM; in experiment [6] it was 1.53 µM. Moreover, the GI50 is 2.87 µM in experiment [7], 1.19 µM in [8], 1.11 µM in experiment [9] and 0.382 µM in [10]. The TGI was above 10 µM in experiment [1]; above 9.25 µM in experiment [2]; 0.816 µM in experiment [3]; above 10 µM in experiment [4]; above 10 µM in experiment [5]; above 10 µM in experiment [6]. Also, the TGI in experiment [7] is above 10 µM; in experiment [8] it was above 10 µM; in [9] it was above 10 µM; in [10], above 8.15 µM.

On to `NC1CCCCC1.[O]=[Ge].[O]=[Ge].[O]=[Ge][OH].[O]=[Ge][OH]`, for which the TGI in [1], in experiment [2], in [3], in [4], in experiment [5] and in experiment [6] was above 100 µM each time. The TGI in experiment [7], in experiment [8], in experiment [9] and in experiment [10] was above 100 µM in each case. The GI50 in [6] is above 100 µM.

For the molecule `O=[N+]([O-])c1ccc(S(=O)Cc2ccccc2)c([N+](=O)[O-])c1` (stereo unspecified), the GI50 in [1] is 2.56 µM; in experiment [2] it was 1.76 µM; in experiment [3] it was 12 µM; in experiment [4], 1.5 µM; in [5], 1.33 µM; in experiment [6], 1.62 µM. The GI50 in experiment [7] is 3.02 µM; in experiment [8] it was 1.85 µM; in [9], 11.6 µM; in [10], 16.3 µM. In addition, the TGI in experiment [1] is 6.65 µM; in experiment [2] it was 3.96 µM; in experiment [3], 25.2 µM; in [4] it was 2.93 µM; in experiment [5], 2.65 µM; in experiment [6], 3.07 µM. Further, the TGI in [7] came to 10.5 µM; in experiment [8] it was 3.88 µM; in experiment [9], 33.1 µM; in [10], 36.3 µM.

Consider `COC(=O)C1C(O)CC(c2ccccn2)N(Cc2ccccc2)C1c1ccccn1` (stereo unspecified), for which the TGI in experiment [1], in experiment [2], in experiment [3], in experiment [4], in experiment [5] and in [6] was above 100 µM throughout. Moreover, the TGI in [7], in [8], in [9] and in experiment [10] was above 100 µM each time.

`O=C([CH-]C(=O)c1ccccc1)c1ccccc1.O=C([CH-]C(=O)c1ccccc1)c1ccccc1.O=C([CH-]C(=O)c1ccccc1)c1ccccc1.[Nd+3].[OH3+]`: the GI50 in [1] is 2.8 µM; in experiment [2] it was 7.84 µM; in experiment [3], 2.91 µM; in experiment [4], 6.63 µM; in experiment [5], 4.1 µM; in experiment [6], 5.93 µM. Besides, the GI50 in [7] is 3.3 µM; in [8], 8.7 µM; in experiment [9], 11.1 µM; in experiment [10] it was 8.41 µM. For the same molecule, the TGI in experiment [1] stood at 16.7 µM; in [2] it was 24.6 µM; in experiment [3] it was 7.23 µM; in experiment [4] it was 51.7 µM; in experiment [5] it was 26.4 µM; in [6] it was 21.2 µM. Also, the TGI in experiment [7] was 22.1 µM; in experiment [8] it was 53.6 µM; in [9], 68.8 µM; in [10], 31.8 µM.

Turning to `O=C1C(c2c[nH]c3ccccc23)=C(c2c[nH]c3ccccc23)C(=O)N1O`, the GI50 in experiment [1], in [2], in experiment [3], in experiment [4], in experiment [5] and in experiment [6] was above 25 µM each time. Moreover, the GI50 in experiment [7], in [8], in experiment [9] and in experiment [10] was above 25 µM each time. The TGI in experiment [1], in [2], in [3], in experiment [4], in experiment [5] and in experiment [6] was above 25 µM throughout. Moreover, the TGI in experiment [7], in experiment [8], in [9] and in [10] was above 25 µM throughout.

For the molecule `COC[C@@H](N=CN1CCc2cc(OC)c(OC)cc2[C@@H]1C)C(C)(C)C`, the TGI in [1], in experiment [2], in [3], in experiment [4], in experiment [5] and in experiment [6] was above 100 µM each time. In addition, the TGI in [7], in experiment [8], in experiment [9] and in experiment [10] was above 100 µM each time.

As for `C=C(CCCCCCCCC)CC(=O)SCCNC(=O)CCNC(=O)C(O)C(C)(C)COP(=O)(O)OP(=O)(O)OCC1OC(n2cnc3c(N)ncnc32)C(O)C1OP(=O)(O)O` (stereo unspecified), the TGI in [1] was above 31.6 µM; in experiment [2], above 100 µM; in experiment [3] it was 58.8 µM; in [4], above 100 µM; in [5], above 100 µM; in experiment [6], above 100 µM. The TGI in experiment [7], in experiment [8], in [9] and in experiment [10] was above 100 µM each time.

For `Cc1ccc(/C(=N\N=C(N)N)c2ccccc2)cc1`, the GI50 in [1] was 0.339 µM; in experiment [2], 11.7 µM; in experiment [3], 0.288 µM; in experiment [4], 0.791 µM; in experiment [5], 0.418 µM; in experiment [6], 0.777 µM. Besides, the GI50 in experiment [7] is 0.521 µM; in experiment [8], 0.371 µM; in experiment [9], 0.587 µM; in experiment [10] it was 0.433 µM. For the same molecule, the TGI is above 100 µM in experiment [1]; 28.2 µM in experiment [2]; 4.94 µM in [3]; 18.6 µM in [4]; 19.1 µM in experiment [5]; 14.8 µM in experiment [6]. Also, the TGI in experiment [7] was 14.3 µM; in experiment [8], 11.5 µM; in experiment [9], 13.4 µM; in [10] it was 17.3 µM.
